Tests used:
[1] = system: CD8+ T cells and MHC-II+ cells; assay: AKOYA-CODEX imaging of tumor sections of KC-HPC mice; assay type: in vivo, mouse
Source text: Next, the inventors examined the expression and infiltration of CD8^+ T cells and MHC-II^+ cells in the tumor sections of KC-HPC treated with vehicle or API and using AKOYA-CODEX which provides spatial capture of location and phenotype for multiple immune cells in the tumor. […] The inventors then observed, via 2D tSNE, increased CD8^+ T cell expression partially located within the tumor plots for the tumors of KC-HPC-API mice compared with vehicle treated KC-HPC mice (FIG. 15B). The poly-1-lysine coated coverslips containing 5-μm of Fresh Frozen (FF) tissue sections were stored at […] until use. At the staining time, FF tissue sections were baked for 30 min to 1 h at 55° C. According to Akoya Biosciences protocol, the FF tissues were dewaxed, deparaffinized in xylene then rehydrated in descending ethanol concentrations (100% twice, 90%, 70%, 50%, and 30%, respectively) and washed in ddH2O twice, each step for 5 min. Heat-induced epitope retrieval with antigen retrieval solution, pH 6, was performed using the pressure cooker at high-pressure protocol ([…]) for 20 min. After cooling at room temperature (RT) for 30 min to 1 h, the coverslips were washed in ddH2O twice for 2 min. […] The processed data were analyzed using the CODEX-MAV plugin in Image J. Then, nuclei segmentation was performed, followed by gating and clustering of the CD8+ T cells populations. […]

SHIP-1 = conditions: API-treated OPC mice, previous findings (ref 12); cited from earlier work
[2] = system: orthotopic (O) mouse model of PC (OPC); conditions: earlier report (ref 12), cited from earlier work

O=c1cc(-c2ccc(O)cc2)oc2cc(O)cc(O)c12 [API, 40,5,7-Trihydroxyflavone, 5,7-Dihydroxy-2-(4-hydroxyphenyl)-4-benzopyrone]
MHC-II+ cells in tumor sections (2D UMAP) ([1]; API treated KC-HPC mice, non-detectable in KC-HPC mice): increase | CD8+ T cell expression in tumor sections (2D tSNE) ([1]; KC-HPC-API vs vehicle treated KC-HPC mice): increased | SHIP-1 gene expression in pancreatic tumor (SHIP-1): increased | SHIP-1 protein expression in pancreatic tumor (SHIP-1): increased | necrosis of pancreatic tumor cells (H&E staining) ([2]; API treatment of OPC mice): induced necrosis | tumor growth ([2]; OPC mouse model): reduced

Reference: patent US20240415804A1, “METHOD OF TREATING PANCREATIC CANCER” (University of South Florida, priority 2022, published 2024)
